Assay results as given in PubChem BioAssay (NCI).
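Five concentrations, 48 hours, 96-well plates. The concentration for 50% growth inhibition is given as GI50. The concentration for full growth arrest is given as TGI.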

Assays:
Assay in all cases: DTP human tumour cell line panel, 48 h
[1] = test system: RPMI-8226 leukemia
[2] = test system: HCT-116 colon
[3] = test system: ACHN renal
[4] = test system: MDA-MB-435
[5] = test system: SF-295 CNS
[6] = test system: K-562 leukemia
[7] = test system: BT-549 breast
[8] = test system: SK-MEL-28 melanoma
[9] = test system: HCC-2998 colon
[10] = test system: UACC-62 melanoma
[11] = test system: SK-MEL-2 melanoma
[12] = test system: A549 NSCLC
[13] = test system: HCT-15 colon
[14] = test system: MCF7 breast
[15] = test system: NCI-H226 lung
[16] = test system: M14 melanoma
[17] = test system: HL-60(TB) leukemia
[18] = test system: SNB-19 CNS
[19] = test system: SF-268 CNS
[20] = test system: SN12C renal
[21] = test system: SK-OV-3 ovarian
[22] = test system: NCI-H460 lung
[23] = test system: 786-0 renal
[24] = test system: TK-10 renal
[25] = test system: CCRF-CEM leukemia
[26] = test system: LOX IMVI melanoma
[27] = test system: SK-MEL-5 melanoma
[28] = test system: SNB-75 CNS
[29] = test system: T-47D breast
[30] = test system: OVCAR-4 ovarian
[31] = test system: A498 renal
[32] = test system: NCI/ADR-RES ovarian
[33] = test system: DU-145 prostate
[34] = test system: SR leukemia
[35] = test system: MDA-MB-231 breast
[36] = test system: HS 578T breast
[37] = test system: OVCAR-8 ovarian
[38] = test system: NCI-H522 lung
[39] = test system: SF-539 CNS
[40] = test system: HT29 colon
[41] = test system: COLO 205 colon
[42] = test system: U251 CNS
[43] = test system: KM12 colon
[44] = test system: PC-3 prostate
[45] = test system: EKVX NSCLC
[46] = test system: MOLT-4 leukemia
[47] = test system: NCI-H23 lung
[48] = test system: IGROV1 ovarian
[49] = test system: OVCAR-5 ovarian
[50] = test system: CAKI-1 renal
[51] = test system: SW-620 colon
[52] = test system: OVCAR-3 ovarian
[53] = test system: MALME-3M melanoma
[54] = test system: HOP-62 NSCLC
[55] = test system: UO-31 renal
[56] = test system: UACC-257 melanoma

`COc1cc(NC(=O)c2ccc(C(F)(F)F)nc2Nc2ccc(Cl)cc2C)cc(OC)c1OC` was tested, and the GI50 [1] was 2.96 µM, the TGI [1] was 17.5 µM and the GI50 [2] was 3.14 µM. It also gave a TGI [2] of 13.4 µM, a GI50 [3] of 3.74 µM and a TGI [3] of 35.5 µM. For the same molecule, the GI50 [4] was 4.19 µM, the TGI [4] was 21.3 µM and the GI50 [5] was 5.36 µM. The TGI [5] was 23.1 µM, the GI50 [6] was 3.01 µM and the TGI [6] was over 100 µM. For the same molecule, the GI50 [7] was 10.7 µM, the TGI [7] was 26.6 µM and the GI50 [8] was 4.4 µM. It also gave a TGI [8] of 26.4 µM, a GI50 [9] of 1.89 µM and a TGI [9] of 5.61 µM. The GI50 [10] was 3.05 µM, the TGI [10] was 15.9 µM and the GI50 [11] was 10.3 µM. The TGI [11] was 28.3 µM, the GI50 [12] was 5.82 µM and the TGI [12] was over 100 µM. The GI50 [13] was 4.35 µM, the TGI [13] was 21.2 µM and the GI50 [14] was 2.39 µM. For the same molecule, the TGI [14] was 16.2 µM, the GI50 [15] was 10.8 µM and the TGI [15] was 31.7 µM. For the same molecule, the GI50 [16] was 4.14 µM, the TGI [16] was 18.9 µM and the GI50 [17] was 1.76 µM. For the same molecule, the TGI [17] was 15.2 µM, the GI50 [18] was 5.77 µM and the TGI [18] was 48.9 µM. It also gave a GI50 [19] of 6.67 µM, a TGI [19] of 28.9 µM and a GI50 [20] of 6.75 µM. The TGI [20] was 31 µM, the GI50 [21] was 5.15 µM and the TGI [21] was 36.1 µM. For the same molecule, the GI50 [22] was 3.3 µM, the TGI [22] was 12.9 µM and the GI50 [23] was 5.56 µM. For the same molecule, the TGI [23] was 22.4 µM, the GI50 [24] was 5.83 µM and the TGI [24] was 29.1 µM. The GI50 [25] was 1.58 µM, the TGI [25] was 29.5 µM and the GI50 [26] was 3.23 µM. It also gave a TGI [26] of 13.5 µM, a GI50 [27] of 2.95 µM and a TGI [27] of 14.9 µM. For the same molecule, the GI50 [28] was 2.78 µM, the TGI [28] was 18.5 µM and the GI50 [29] was 2.47 µM. For the same molecule, the TGI [29] was 21.3 µM, the GI50 [30] was 2.77 µM and the TGI [30] was 25.3 µM. The GI50 [31] was 3.9 µM, the TGI [31] was 23.8 µM and the GI50 [32] was 3.62 µM. The TGI [32] was 17.1 µM, the GI50 [33] was 11.7 µM and the TGI [33] was 57.3 µM. It also gave a GI50 [34] of 2.77 µM, a TGI [34] of 13.5 µM and a GI50 [35] of 3.73 µM. The TGI [35] was 14.8 µM, the GI50 [36] was 4.65 µM and the TGI [36] was 38.7 µM. For the same molecule, the GI50 [37] was 6.19 µM, the TGI [37] was over 100 µM and the GI50 [38] was 1.61 µM. It also gave a TGI [38] of 14.4 µM, a GI50 [39] of 10.6 µM and a TGI [39] of over 100 µM. It also gave a GI50 [40] of 4.92 µM, a TGI [40] of 19.3 µM and a GI50 [41] of 4.06 µM. The TGI [41] was 15.5 µM, the GI50 [42] was 4.86 µM and the TGI [42] was 17.5 µM. For the same molecule, the GI50 [43] was 1.55 µM, the TGI [43] was 13.2 µM and the GI50 [44] was 1.86 µM. The TGI [44] was 10.5 µM, the GI50 [45] was 6.34 µM and the TGI [45] was over 100 µM. For the same molecule, the GI50 [46] was 2.54 µM, the TGI [46] was 18.2 µM and the GI50 [47] was 2.2 µM. For the same molecule, the TGI [47] was 10.6 µM, the GI50 [48] was 0.958 µM and the TGI [48] was 23 µM. The GI50 [49] was 10.8 µM, the TGI [49] was 27.7 µM and the GI50 [50] was 3.36 µM. For the same molecule, the TGI [50] was 9.85 µM, the GI50 [51] was 5.92 µM and the TGI [51] was 18.8 µM. It also gave a GI50 [52] of 2.41 µM, a TGI [52] of 13.3 µM and a GI50 [53] of 4.94 µM. The TGI [53] was 24 µM, the GI50 [54] was 5.95 µM and the TGI [54] was 18.2 µM. The GI50 [55] was 2.68 µM, the TGI [55] was 17.9 µM and the GI50 [56] was 3.4 µM. It also gave a TGI [56] of 19.3 µM.
